What all share (type): nucleic-acid assay
For assay [1], the system named is Nucleic Acid. Nature of the assay: Stabilization of human hybrid-type G-quadruplex G4A in 100 mM Na+ solution at room temperature assessed as formation of anti-parallel structure at 60 uM by CD spectroscopy.
Assay [2] has as its system Nucleic Acid. Description: Binding affinity to human G-quadruplex FAM-21G at 20 uM by native PAGE analysis.
In assay [3] the test system is Nucleic Acid. Nature of the assay: Stabilization of human G-quadruplex G4A in 100 mM K+ solution assessed as formation of stable parallel structure measuring transformation rate constant at 60 uM after 1 day at 37 degC by CD spectroscopy.
The subject of assay [4] is Nucleic Acid. Nature of the assay: Stabilization of human G-quadruplex G4A in 100 mM K+ solution assessed as time required to the formation of stable parallel structure at 60 uM at 37 degC by CD spectroscopy.
Assay [5] deals with Nucleic Acid. Nature of the assay: Stabilization of human G-quadruplex G4A in 100 mM K+ solution assessed as time required to the formation of stable snti-parallel quadruplex structure at 60 uM at 37 degC by CD spectroscopy.
In assay [6] the test system is Nucleic Acid. Nature of the assay: Stabilization of human hybrid-type G-quadruplex G4A in 100 mM K+ solution at room temperature assessed as formation of anti-parallel structure at 60 uM by CD spectroscopy.
Assay [7] concerns Nucleic Acid. Description: Stabilization of human G-quadruplex G4A in 100 mM K+ solution assessed as formation of stable parallel structure at 60 uM after heating at 95 degC and cooling to room temperature by CD spectroscopy.
The test system of assay [8] is Nucleic Acid. Nature of the assay: Stabilization of human G-quadruplex G4A in 100 mM K+ solution assessed as formation of stable parallel structure at 60 uM after 1 day at 37 degC by CD spectroscopy.
The test system of assay [9] is Nucleic Acid. Description: Binding affinity to human G-quadruplex FAM-21G at 10 uM after 2 to 24 hrs by native PAGE analysis.
In assay [10] the test system is Nucleic Acid. Description: Binding affinity to human G-quadruplex Ap-6 substituted 21G assessed as fluorescence quenching using ascorbic acid at 5 uM up to 1 hr by fluorescence analysis.
Assay [11] relates to Nucleic Acid. Description: Binding affinity to human G-quadruplex Ap-12 substituted 21G assessed as fluorescence quenching using ascorbic acid at 5 uM up to 1 hr by fluorescence analysis.
Assay [12] deals with Nucleic Acid. Nature of the assay: Binding affinity to human G-quadruplex Ap-18 substituted 21G assessed as fluorescence quenching using ascorbic acid at 5 uM up to 1 hr by fluorescence analysis.
In assay [13] the test system is Nucleic Acid. Nature of the assay: Binding affinity to human G-quadruplex Ap-6 substituted 21G at 5 uM up to 1 hr by fluorescence analysis.
Assay [14] deals with Nucleic Acid. Description: Binding affinity to human G-quadruplex Ap-12 substituted 21G at 5 uM up to 1 hr by fluorescence analysis.
The test system of assay [15] is Nucleic Acid. Nature of the assay: Binding affinity to human G-quadruplex Ap-18 substituted 21G at 5 uM up to 1 hr by fluorescence analysis.

The structures appear in SMILES notation. Active and inactive are the calls of the source. No cut-off for these calls is given here.

Regarding `C[N+]1(CC(=O)Nc2cccc(NC(=O)c3cccc(C(=O)Nc4cccc(NC(=O)C[N+]5(C)CCCCC5)n4)n3)n2)CCCCC1`, in assay [1], the outcome was inactive. Besides, the result in assay [2], in assay [6], in [7], in assay [9], in assay [10] and in assay [11] was Active. For the same compound, the outcome in assay [12], in [13], in assay [14] and in [15] was Active. Moreover, the Activity in assay [3] was found to be 6.2 ×10⁻⁵ /s; in assay [8] it was 99%. In addition, the TIME was 20 h in assay [4] and 3 h in assay [5].
